# Assay results from US9458161B1, “TSPO ligands for cancer imaging and treatment” (Vanderbilt University, priority 2011, dated 2016).
# Key:
# TSPO [1] = target: T1, TSPO (Rattus norvegicus, UniProt P16257); assay: In vivo PET evaluation of [18F]VUIIS-0005 in C6 glioma; design: from tissue; host or cells: C6 glioma tumour and normal brain / other tissues of living rats
# Experimental: (§1) Dynamic microPET imaging can be performed as in tumor-bearing and non-tumor-bearing rats. […] Dynamic images (120 min) are collected, followed by CT for attenuation correction and cross-platform registration. For displacement studies, ‘cold’ analog (10 mg/kg) are injected via jugular catheter 30 min after radiotracer administration. Prior to PET scanning, tumors are localized in tumor-bearing rats using MRI, including T2-weighted and diffusion-weighted scans. For longitudinal studies, tumor volumes are measured using a three-dimensional, T2-weighted fast spin-echo sequence on a Varian 9.4 T horizontal bore imaging system.
# TSPO [2] = target: T1, TSPO; assay: Radioligand displacement of [3H]PK 11195 in C6 glioma cell / tumor lysate; format: binding; design: from tissue; host or cells: C6 glioma tumour and normal brain / other tissues of living rats; conditions: for binding affinity (in words): tumor lysate / C6 cell lysate
# Experimental: Given our focus of targeting TSPO expressed in tumors, affinity assays will be conducted in whole and fractionated tumor lysate.
# In this Example Glioma-bearing rats were imaged with [^18F]PBR06 in a microPET system. Dynamic acquisitions were acquired simultaneously upon injection of 70-100 MBq/0.2 mL [^18F]PBR06. Over the course of scanning, arterial blood was collected to derive the input function, with HPLC radiometabolite analysis performed on selected samples for arterial input function correction. Compartmental modeling of the PET data was performed using the corrected arterial input function. Specific tumor cell binding of PBR06 was evaluated by radioligand displacement of [^3H]PK 11195 with PBR06 in vitro and by displacement of [^18F]PBR06 with excess PBR06 in vivo. Immediately following imaging, tumor tissue and adjacent healthy brain were harvested for assay of TSPO protein levels by western blotting and immunohistochemistry.
# Radioligand displacement of the high-affinity isoquinoline carboxamide TSPO ligand [^3H]PK 11195 was used to evaluate the specific binding of the non-radioactive analogue PBR06 in C6 glioma cell line homogenates in vitro (FIG. 10). […]
# TSPO [3] = target: T2, TSPO (Mus musculus, UniProt P50637); assay: TSPO-PET with 18F-VUIIS1008 in Lrig1-CreERT2;Apcfl/+ mouse model of colorectal cancer; format: in vivo
# T2 construct: from tissue; host or cells: colon tumours (Lrig1-CreERT2;Apcfl/+ mice) and pancreatic tumours (Ptf1a-cre;LSL-KrasG12D;Tgfbr2fl/fl mice) in living mice
# Experimental: All studies were conducted in accordance with federal and institutional guidelines. Lrig1-CreERT2/+mice (35) were crossed to Apcfl/+mice to generate Lrig1-CreERT2/+; Apcfl/+mice. Six to eight week old mice were injected with 2 mg tamoxifen (Sigma Aldrich) intraperitoneally for three consecutive days to induce tumor formation. Mice were imaged approximately 100 days after injection of tamoxifen and then sacrificed
# Colonoscopy (KARL STORZ-SCB Endoscope System) was performed monthly beginning two months after tamoxifen induction. Mice are anesthetized and immobilized using 2% isofluorane anesthesia in 100% oxygen at 2 L/min. Tumor formation within a single mouse was tracked over time. Upon visual detection of distal colon tumors mice were designated for PET imaging.
# PET imaging was performed using a dedicated small animal PET scanner (Concorde Microsystems Focus 220) as described. Briefly, mice were maintained under 2% isofluorane anesthesia in 100% oxygen at 2 L/min and kept warm via a circulating water heating pad during the PET scan. Animals were administered 7.4-9.3 MBq of [^18F]-VUIIS1008 intravenously and allowed free access to food and water during a 50 minute uptake period and a 20 minute PET acquisition. Scans were reconstructed using OSEM3D/MAP.
# TSPO [4] = target: T1, TSPO; assay: Dynamic microPET of [18F]VUIIS-1008 in C6 glioma-bearing rats, with compartmental modeling and in vivo displacement; design: from tissue; host or cells: C6 glioma tumour and normal brain / other tissues of living rats; conditions: for VT (calculated): mean ± SE; for tracer distribution tumor vs normal brain (in words): C6 glioma
# Experimental: as §1, with “Dynamic images (120 min) are collected, followed by CT for attenuation correction and cross-platform registration.” left out
# A 3-compartment, 4-rate constant kinetic model can be used to characterize [^18F]PBR06 pharmacokinetics. […] These rate constants can be used to calculate the total volume of distribution (VT) in tissues of interest. Modeling will be carried out for whole brain (excluding tumor) and tumor by fitting time-activity curves (TACs) of each region.
# Before PET imaging with ^18F-VUIIS1008, brain tumors were localized with T2-weighted MRI. […] After the initial spike in radioactivity consistent with tracer injection, ^18F-VUIIS1008 rapidly cleared from the plasma. Imaging-matched brains were processed for staining and immunohistochemistry. Using standard hematoxylin and eosin staining to localize the tumor, the present inventors discovered that TSPO expression was significant higher in tumor than in the adjacent healthy brain.
# In order to fully evaluate the novel performance of ^18F-VUIIS1008, we have also determined ^18F-VUIIS 1008 pharmacodynamics with arterial input function.
# [5] = 1-tissue model, tumor, mean (SE in next line)
smiles,measurement,setting,value
COc1ccc(OC)c(CN(C(=O)CF)c2ccccc2Sc2ccccc2)c1 [[^18F]VUIIS-0005],in vivo uptake distribution (in words),TSPO [1],"primarily confined to tumor tissue, with significantly less normal brain uptake compared to ^18F-PBR06"
same,binding affinity (in words),TSPO [2],improved binding affinity in tumor lysate compared to PBR06 or DPA-714
CCc1cc(CC)n2nc(-c3ccc(OCCF)cc3)c(CC(=O)N(CC)CC)c2n1 [[^18F]VUIIS-1008],tracer uptake in distal colon (in words),TSPO [3]; Lrig1-CreERT2;Apcfl/+ mice with colonoscopy confirmed tumors,"increased, focal uptake in the distal colon compared to adjacent non-tumor tissue and wild type controls"
same,tracer uptake in colon (in words),TSPO [3]; wild type mice,low tracer uptake in the colon
same,K1,"TSPO [4]; 1-tissue model, brain, mean",0.3161 mL/g/min
same,k2,"TSPO [4]; 1-tissue model, brain, mean",0.3048 min⁻¹
same,VT (calculated),"TSPO [4]; 1-tissue model, brain",1.3 ± 0.2
same,K1,TSPO [4]; [5],0.3535 mL/g/min
same,k2,TSPO [4]; [5],0.0964 min⁻¹
same,VT (calculated),"TSPO [4]; 1-tissue model, tumor",3.6 ± 0.6
same,K1,"TSPO [4]; 2-tissue model, brain, mean",0.5856 mL/g/min
same,k2,"TSPO [4]; 2-tissue model, brain, mean",2.0217 min⁻¹
same,k3,"TSPO [4]; 2-tissue model, brain, mean",0.2903 min⁻¹
same,k4,"TSPO [4]; 2-tissue model, brain, mean",0.0912 min⁻¹
same,VT (calculated),"TSPO [4]; 2-tissue model, brain",1.7 ± 0.4
same,K1,"TSPO [4]; 2-tissue model, tumor, mean",0.5448 mL/g/min
same,k2,"TSPO [4]; 2-tissue model, tumor, mean",1.2413 min⁻¹
same,k3,"TSPO [4]; 2-tissue model, tumor, mean",0.1300 min⁻¹
same,k4,"TSPO [4]; 2-tissue model, tumor, mean",0.0234 min⁻¹
same,VT (calculated),"TSPO [4]; 2-tissue model, tumor",4.6 ± 0.8
same,K1,"TSPO [4]; 3-tissue model, brain, mean",0.6925 mL/g/min
same,k2,"TSPO [4]; 3-tissue model, brain, mean",3.7619 min⁻¹
same,k3,"TSPO [4]; 3-tissue model, brain, mean",0.8194 min⁻¹
same,k4,"TSPO [4]; 3-tissue model, brain, mean",0.2569 min⁻¹
same,k5,"TSPO [4]; 3-tissue model, brain, mean",0.5314 min⁻¹
same,k6,"TSPO [4]; 3-tissue model, brain, mean",0.1748 min⁻¹
same,VT (calculated),"TSPO [4]; 3-tissue model, brain",1.4 ± 0.2
same,K1,"TSPO [4]; 3-tissue model, tumor, mean",0.6449 mL/g/min
same,k2,"TSPO [4]; 3-tissue model, tumor, mean",2.9459 min⁻¹
same,k3,"TSPO [4]; 3-tissue model, tumor, mean",0.4597 min⁻¹
same,k4,"TSPO [4]; 3-tissue model, tumor, mean",0.1371 min⁻¹
same,k5,"TSPO [4]; 3-tissue model, tumor, mean",0.2304 min⁻¹
same,VT (calculated),"TSPO [4]; 3-tissue model, tumor",6.4 ± 1.8
same,k6,"TSPO [4]; 3-tissue model, tumor, mean, listed as [18F]VUIIS1008",0.0574 min⁻¹
same,"stability in plasma, HPLC radiometabolite assay (in words)",TSPO [4]; 90 min dynamic PET scan,high stability of this probe in the 90 min dynamic PET scan
same,tracer distribution tumor vs normal brain (in words),TSPO [4],"robust tumor uptake, yet very little normal brain uptake"
same,tracer distribution tumor vs normal brain (in words),TSPO [4]; listed as 18F-VUIIS1008,"most of the uptake in the brain was localized to the tumor, with only modest accumulation in the adjacent, normal brain"
same,clearance and accumulation compared with 18F-DPA714 (in words),TSPO [4]; glioma-bearing rats,"a similar clearance and accumulation in brain, while a faster clearance and a slower accumulation in tumor"
same,displacement from the tumor by 'cold' VUIIS-1008 (in words),TSPO [4]; in vivo displacement,no detectable displacement from the tumor
same,increase in tracer levels in plasma on displacement with 'cold' VUIIS-1008,TSPO [4]; in vivo displacement,25 fold
same,binding affinity (in words),TSPO [2],improved binding affinity in tumor lysate compared to PBR06 or DPA-714
same,binding affinity,TSPO [2]; whole tumor lysate,~1 nM
